Results published in article PMC11073913 (Archiv der Pharmazie, 2024).
Values joined by “and” are separate entries in the source; they are usually repeats but may differ in a detail not shown here. Equal values may be shown once. Read-outs that look alike come from different tables or passages of the source.

Tests used:
ovine COX-1 = biological target: T1, ovine COX-1 (Ovis aries, UniProt P05979); test: In vitro COX-1 inhibitory assay; assay type: biochemical
T1 sequence (P05979 25-600): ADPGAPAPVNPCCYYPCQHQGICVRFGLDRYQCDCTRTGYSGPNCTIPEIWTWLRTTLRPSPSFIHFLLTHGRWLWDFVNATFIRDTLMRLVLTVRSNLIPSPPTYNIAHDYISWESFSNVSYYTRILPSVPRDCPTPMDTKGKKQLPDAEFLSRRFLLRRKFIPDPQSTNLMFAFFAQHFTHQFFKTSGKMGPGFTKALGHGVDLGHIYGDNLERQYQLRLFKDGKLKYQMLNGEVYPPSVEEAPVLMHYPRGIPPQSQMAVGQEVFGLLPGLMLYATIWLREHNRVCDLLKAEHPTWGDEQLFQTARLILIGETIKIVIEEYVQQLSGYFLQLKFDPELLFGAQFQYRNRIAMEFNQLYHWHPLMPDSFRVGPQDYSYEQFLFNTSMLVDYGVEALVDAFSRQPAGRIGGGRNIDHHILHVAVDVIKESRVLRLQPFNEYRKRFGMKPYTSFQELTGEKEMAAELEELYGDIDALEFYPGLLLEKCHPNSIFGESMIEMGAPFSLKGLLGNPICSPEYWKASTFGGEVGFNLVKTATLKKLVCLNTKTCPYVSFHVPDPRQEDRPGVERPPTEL

human recombinant COX-2 = biological target: T2, human recombinant COX-2 (Homo sapiens, UniProt P35354); test: In vitro COX-2 inhibitory assay; assay type: biochemical; settings: for Enhancement of anti-COX-2 activity by p-Cl on benzylidine: compared with unsubstituted compounds 4b, 4c, 4g, 4h respectively
T2 sequence (P35354 18-604): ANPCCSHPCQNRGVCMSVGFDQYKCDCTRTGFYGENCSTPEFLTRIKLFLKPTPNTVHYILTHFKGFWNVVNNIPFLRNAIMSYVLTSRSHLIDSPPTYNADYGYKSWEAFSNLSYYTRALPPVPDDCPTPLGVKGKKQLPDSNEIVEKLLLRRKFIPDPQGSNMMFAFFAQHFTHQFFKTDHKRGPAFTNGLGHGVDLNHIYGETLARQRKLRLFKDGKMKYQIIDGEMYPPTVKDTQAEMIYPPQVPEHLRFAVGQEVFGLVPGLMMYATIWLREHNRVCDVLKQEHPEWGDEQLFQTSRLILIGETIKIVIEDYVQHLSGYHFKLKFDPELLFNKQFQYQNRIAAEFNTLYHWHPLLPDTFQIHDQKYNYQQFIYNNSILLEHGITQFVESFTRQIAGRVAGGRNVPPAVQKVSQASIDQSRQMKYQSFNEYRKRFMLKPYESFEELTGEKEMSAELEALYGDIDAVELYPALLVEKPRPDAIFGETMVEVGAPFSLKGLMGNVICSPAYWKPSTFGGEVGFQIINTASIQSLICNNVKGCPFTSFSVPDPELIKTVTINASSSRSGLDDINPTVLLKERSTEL

soybean 15-LOX = biological target: T3, soybean 15-LOX (Glycine max, UniProt P08170); test: In vitro 15-LOX inhibitory assay; assay type: biochemical
T3 sequence (P08170 1-839): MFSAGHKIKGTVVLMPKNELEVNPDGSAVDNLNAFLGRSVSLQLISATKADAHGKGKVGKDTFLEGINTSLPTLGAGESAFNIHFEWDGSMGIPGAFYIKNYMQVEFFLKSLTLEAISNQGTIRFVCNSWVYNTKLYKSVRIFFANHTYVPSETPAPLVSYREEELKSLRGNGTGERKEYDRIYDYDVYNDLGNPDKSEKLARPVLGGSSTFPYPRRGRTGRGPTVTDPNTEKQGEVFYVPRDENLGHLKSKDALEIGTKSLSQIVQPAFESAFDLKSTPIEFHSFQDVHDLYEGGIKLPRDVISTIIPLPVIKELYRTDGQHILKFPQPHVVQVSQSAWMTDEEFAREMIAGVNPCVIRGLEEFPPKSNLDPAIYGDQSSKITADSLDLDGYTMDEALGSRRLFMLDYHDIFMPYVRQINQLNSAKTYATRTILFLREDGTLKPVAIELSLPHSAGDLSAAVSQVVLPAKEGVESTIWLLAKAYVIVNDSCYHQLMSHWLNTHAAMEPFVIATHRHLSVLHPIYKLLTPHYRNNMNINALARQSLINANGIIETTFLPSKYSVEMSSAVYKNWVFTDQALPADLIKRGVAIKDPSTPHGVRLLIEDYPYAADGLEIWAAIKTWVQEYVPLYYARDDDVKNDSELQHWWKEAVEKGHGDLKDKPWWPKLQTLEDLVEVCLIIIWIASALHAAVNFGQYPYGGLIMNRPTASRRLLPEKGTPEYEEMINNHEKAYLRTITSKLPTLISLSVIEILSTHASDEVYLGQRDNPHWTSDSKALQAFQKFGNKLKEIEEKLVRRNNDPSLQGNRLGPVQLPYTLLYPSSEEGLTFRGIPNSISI

[1] = tested on: NF-κB activation in RAW 264.7 macrophages; test: NF-κB activation in LPS-activated RAW 264.7 macrophages; assay type: cell-based, murine; settings: 25 μM pretreatment, Western blot
Cell viability assay = assay type: cell-based, murine; settings: mouse, RAW 264.7 macrophage cells
[2] = tested on: LPS-induced TNF-α production in RAW 264.7 cells; settings: for TNF-α level: cells treated with 25 μM compound
[3] = tested on: LPS-induced IL-6 production in RAW 264.7 cells; settings: LPS-activated RAW 264.7; for IL-6 level: cells treated with 25 μM compound
[4] = tested on: LPS-induced ROS production in RAW 264.7 cells; test: cells; settings: Mus musculus, RAW264.7, 18 h, read-out: ROS (IC50)
[5] = tested on: LPS-induced ROS production in RAW 264.7 cells; settings: read-out: ROS (IC50), LPS (1 μg/mL) 18 h, mean ± SEM
[6] = read-out: COX1, IC50, ovine COX-1, mean ± SEM
[7] = read-out: 15-LOX IC50, soybean 15-LOX

With `COc1ccc(NC(=O)CSC2=N/C(=C\c3ccccc3)C(=O)N2c2ccccc2)cc1` [Compound 4f, (Z)-2-[(4-Benzylidene-5-oxo-1-phenyl-4,5-dihydro-1H-imidazol-2-yl)thio]-N-(4-methoxyphenyl)acetamide] the IC50 (ovine COX-1) was 11 ± 1.53 µM, the IC50 (human recombinant COX-2) was 0.08 ± 0.04 µM and the “SI (Selectivity index = COX-1 IC50/COX-2 IC50)” value (human recombinant COX-2; COX-1 IC50/COX-2 IC50) was 131.59. For the same compound, the IC50 (soybean 15-LOX) was 3.96 ± 1.49 µM, the “LPS-mediated increase in NF-κB activation (phospho/total NF-κB)” value [1] was “attenuated” and the viability at 50 µM (Cell viability assay) was 83 to 105%. The “Lowering of TNF-α level” value ([2]; LPS-activated RAW 264.7) was ~ 80%, the TNF-α level ([2]; LPS-activated RAW 264.7) was 22.94 ± 6.32 pg/mL and the “Lowering of IL-6 level” value [3] was ~ 80%. For the same compound, the IL-6 level [3] was 22.21 pg/mL and 22.21 ± 6.32 pg/mL and the IC50 [4] was 22.8 ± 1.32 µM.

For `O=C(CSC1=N/C(=C\c2ccc(Cl)cc2)C(=O)N1c1ccccc1)Nc1ccc(F)cc1` [Compound 4k, (Z)-2-{[4-(4-Chlorobenzylidene)-5-oxo-1-phenyl-4,5-dihydro-1H-imidazol-2-yl]thio}-N-(4-fluorophenyl)acetamide], the IC50 (ovine COX-1) was 13 ± 1.82 µM, the IC50 (human recombinant COX-2) was 0.07 ± 0.034 µM and the “SI (Selectivity index = COX-1 IC50/COX-2 IC50)” value (human recombinant COX-2; COX-1 IC50/COX-2 IC50) was 186.28. The “Enhancement of anti-COX-2 activity by p-Cl on benzylidine” value (human recombinant COX-2) was 1.85 folds, the IC50 (soybean 15-LOX) was 2.17 ± 1.04 µM and the viability at 50 µM (Cell viability assay) was 83 to 105%. For the same compound, the TNF-α level ([2]; LPS-activated RAW 264.7) was 28.29 ± 14.76 pg/mL, the IL-6 level [3] was 27.57 ± 14.76 pg/mL and the IC50 [4] was 71 ± 1.55 µM.

In the case of `COc1cc(NC(=O)CSC2=N/C(=C\c3ccccc3)C(=O)N2c2ccccc2)cc(OC)c1OC` [Compound 4g, (Z)-2-[(4-Benzylidene-5-oxo-1-phenyl-4,5-dihydro-1H-imidazol-2-yl)thio]-N-(3,4,5-trimethoxyphenyl) acetamide], the IC50 (ovine COX-1; [6]) is reported as 9.83 ± 1.65 µM, the “SI (Selectivity index = COX-1 IC50/COX-2 IC50)” value (human recombinant COX-2) is reported as 68.07 and the IC50 (human recombinant COX-2; read-out: COX2, IC50) is reported as 0.14 ± 0.073 µM. The IC50 (soybean 15-LOX; [7]) was 2.82 ± 1.27 µM, the IC50 [5] was 65.9 ± 1.55 µM and the TNF-α level ([2]; LPS-activated RAW 264.7) was 12.23 pg/mL and 12.23 ± 3.09 pg/mL. For the same compound, the “TNF-α inhibition, fold more potent than celecoxib” value ([2]; vs celecoxib) was roughly 2 fold and the IL-6 level [3] was 11.51 ± 3.09 pg/mL.

For `O=C(CSC1=N/C(=C\c2ccc(Cl)cc2)C(=O)N1c1ccccc1)Nc1ccc(Cl)cc1` [Compound 4l, (Z)-2-{[4-(4-Chlorobenzylidene)-5-oxo-1-phenyl-4,5-dihydro-1H-imidazol-2-yl]thio}-N-(4-chlorophenyl)acetamide], the IC50 (ovine COX-1) was 12.3 ± 1.84 µM, the IC50 (human recombinant COX-2) was 0.08 ± 0.035 µM and the “SI (Selectivity index = COX-1 IC50/COX-2 IC50)” value (human recombinant COX-2; COX-1 IC50/COX-2 IC50) was 154.73. For the same compound, the “Enhancement of anti-COX-2 activity by p-Cl on benzylidine” value (human recombinant COX-2) was 1.75 folds, the IC50 (soybean 15-LOX) was 2.69 ± 1.29 µM and the “LPS-mediated increase in NF-κB activation (phospho/total NF-κB)” value [1] was “attenuated”. For the same compound, the viability at 50 µM (Cell viability assay) was 83 to 105%, the TNF-α level ([2]; LPS-activated RAW 264.7) was 26.47 ± 5.33 pg/mL and the IL-6 level [3] was 25.57 pg/mL and 25.75 ± 5.33 pg/mL. It also gave an IC50 [4] of 52.7 ± 1.35 µM.

In the case of `O=C(CSC1=N/C(=C\c2ccccc2)C(=O)N1c1ccccc1)Nc1ccc(Cl)cc1` [Compound 4c, (Z)-2-[(4-Benzylidene-5-oxo-1-phenyl-4,5-dihydro-1H-imidazol-2-yl)thio]-N-(4-chlorophenyl) acetamide], the IC50 (ovine COX-1; [6]) is reported as 9.12 ± 1.4 µM, the “SI (Selectivity index = COX-1 IC50/COX-2 IC50)” value (human recombinant COX-2) is reported as 64.62 and the IC50 (human recombinant COX-2; read-out: COX2, IC50) is reported as 0.14 ± 0.062 µM. It also gave an IC50 (soybean 15-LOX; [7]) of 3.24 ± 1.46 µM, an IC50 [5] of 61.6 ± 1.51 µM and a TNF-α level ([2]; LPS-activated RAW 264.7) of 49.81 ± 23.20 pg/mL. It also gave an IL-6 level [3] of 49.08 ± 23.20 pg/mL.

For `O=C(CSC1=N/C(=C\c2ccccc2)C(=O)N1c1ccccc1)Nc1ccc(Br)cc1` [Compound 4d, (Z)-2-[(4-Benzylidene-5-oxo-1-phenyl-4,5-dihydro-1H-imidazol-2-yl)thio]-N-(4-bromophenyl) acetamide], the IC50 (ovine COX-1; [6]) was 8.14 ± 1.53 µM, the “SI (Selectivity index = COX-1 IC50/COX-2 IC50)” value (human recombinant COX-2) was 64.13 and the IC50 (human recombinant COX-2; read-out: COX2, IC50) was 0.13 ± 0.071 µM. For the same compound, the IC50 (soybean 15-LOX; [7]) was 5.14 ± 2.48 µM, the IC50 [5] was 62.1 ± 1.51 µM and the TNF-α level ([2]; LPS-activated RAW 264.7) was 27.08 pg/mL and 27.08 ± 4.22 pg/mL. The IL-6 level [3] was 26.35 pg/mL and 26.35 ± 4.22 pg/mL.

In the case of `Cc1ccc(NC(=O)CSC2=N/C(=C\c3ccccc3)C(=O)N2c2ccccc2)cc1` [Compound 4e, (Z)-2-[(4-Benzylidene-5-oxo-1-phenyl-4,5-dihydro-1H-imidazol-2-yl)thio]-N-(4-tolyl) acetamide], the IC50 (ovine COX-1; [6]) is reported as 9.12 ± 1.4 µM, the “SI (Selectivity index = COX-1 IC50/COX-2 IC50)” value (human recombinant COX-2) is reported as 90.85 and the IC50 (human recombinant COX-2; read-out: COX2, IC50) is reported as 0.1 ± 0.048 µM. The IC50 (soybean 15-LOX; [7]) was 5.14 ± 2.48 µM, the IC50 [5] was 118 ± 2.36 µM and the TNF-α level ([2]; LPS-activated RAW 264.7) was 58.19 ± 23.16 pg/mL. It also gave an IL-6 level [3] of 34.33 ± 1.82 pg/mL.
